Experimental data reported in patent US10676747B2, “Methods for improving cognitive function via modulation of quinone reductase 2” (Carmel-Haifa University Economic Corp. Ltd., priority 2014, dated 2020).

Tests used:
[1] = system: mice; test: Morris Water Maze after QR2 shRNA injection into hippocampus (CA1 region); type: in vivo, mouse
Method: M&M—Spatial reference memory in the Morris Water Maze (MWM) was determined as previously described (Vorhees, Williams 2006). The pool was 1.2 m in diameter and the water was rendered opaque by the addition of white tempera. Water temperature was kept at 22° C. The platform was 8 cm in diameter. All behavioral tests and trials were performed at the same time of day (±1 hr) during the animal's light phase. The mice were acclimatized in testing room for 15 min. Mice were trained in four trials per day (trial length 60 s with 30 s ITI), over 4 consecutive days. If an animal fails to locate the platform within training time, it is usually picked up and placed on the platform for 15 s. For probe trials, the platform was removed from the maze and the animals were allowed to search for 60 s. Learning was evaluated by monitoring escape latencies to a hidden (submerged) platform and time spent in each quadrant of the maze (quadrant occupancy) with an automated video tracking system, and the data analyzed by EthoVision XT9 (Noldus Information Technology, USA). Swimming speed was similar in QR2 shRNA and scrambled injected animals (data not shown).

[2] = system: QR2 mRNA; test: QR2 mRNA expression in primary cortical cells treated with QR2 shRNA lentiviral clones; type: cell-based; conditions: rat primary cortical cells, week long incubation, compared to scrambled virus; FIG. 8
Method: (§1) mRNA quantification—We used the RNeasy lipid tissue kit (QIAGEN) according to the manufacturer's instructions in order to extract the RNA. We then evaluated RNA concentration and purity using a nanodrop spectrophotometer.
(§2) The cDNA synthesis was accomplished using the High Capacity Reverse Transcription Kit (ABI) according to the manufacturer's instructions. The reaction was carried out in a total volume of 20 μl on 1000 ng of RNA.
(§3) The qPCR reaction was performed in a total volume of 10 μl on 10 ng of cDNA. We used the following TaqMan assays (Applied Biosystems): QR2 (Rn01434728_g1), NQO1 (RN00566528_m1), glyceraldehyde-3-phosphate dehydrogenase, GAPDH (Rn01775763_g1). The reactions were carried out per the manufacturer's instructions.
(§4) Real Time-PCR analysis was performed using the PCR System STEP-ONE plus (Applied Biosystems). Relative mRNA levels were calculated using the ΔΔCt method using GAPDH as a normalizing gene: ΔΔCt=[(Ct(gene of interest)−Ct(GAPDH)) of the untreated group]−[(Ct(gene of interest)−Ct(GAPDH)) of the treated group]. The fold increase is then calculated as such: fold increase=2−ΔΔCt. […]
For this purpose, we evaluated three different clones (Sigma-Aldrich, Israel). […] We then evaluated QR2 mRNA expression.

[3] = system: QR2 mRNA; test: QR2 mRNA expression in the IC after stereotactic injection of QR2 shRNA virus (RT-PCR); type: in vivo, rat; conditions: compared to scrambled virus group, n=12, p<0.005; FIG. 12
Method: Tissue extraction—Following the learning protocol the insular cortex was removed by hand. The insular cortex was identified through cortical landmarks, the rhinal fissure and the medial cerebral artery. The insular cortex was immediately placed in liquid nitrogen and then stored at −80° C.
as §1, §2, §3, §4

[4] = system: rats; test: Memory extinction following a CTA paradigm in QR2 shRNA injected animals; type: in vivo, rat; conditions: repeated measure ANOVA; FIG. 11
Method: Aversion index—the aversion index is calculated by the following equation [(total water ingested/(novel taste liquid ingested+water ingested))*100].
Conditioned Taste Aversion (CTA)—Two groups of rats were deprived from water for a period of 24 hours. This was followed by 3 days of restriction were the rats received two pipettes each filled with 10 ml of water for 20 minutes each day. On the fourth day both groups received two pipettes each filled with 10 ml of an unfamiliar tasting liquid, either saccharine (0.1% w/v) or NaCl (0.3% w/v), for 20 minutes. Forty minutes following the exposure to the novel liquid the rats in the experimental group received an injection of LiCl (prepared in double distilled water (DDW)) (2% bodyweight, intraperitoneally (i.p.)) and those in the control received an injection of physiological saline (2% bodyweight, i.p.).

[5] = system: rats; test: Novel taste (saccharin) choice test after injection of QR2 shRNA virus into the IC; type: in vivo, rat; conditions: lentivirus injected into IC; choice test three days after saccharin; mean+/-SEM, n=12
Method: Micro-infusion—Rats were anesthetized with Equithesin (0.45 ml/100 g) (2.12% w/v MgSO4, 10% v/v ethanol, 39.1% v/v 1,2,-propranolol, 0.98% w/v sodium pentobarbital, and 4.2% w/v chloral hydrate), restrained in a stereotactic apparatus (Stoelting, USA) and injected bilaterally with a 10 mm 28 gauge injection cannula aimed at the rat gustatory cortex (anteroposterior, +1.2 mm relative to bregma; lateral, ±5.5 mm; ventral, −5.5 mm; (Paxinos and Watson, 1986). The injection cannula was connected via PE20 tubing to a Hamilton microsyringe driven by a micro-infusion pump (CMA/100; Carnegie Medicin). […] The injection cannula was left in position before withdrawal for an additional 1 min to minimize dragging of the injected liquid along the injection tract. To avoid lateral bias, animals were injected interchangeably between both sides. Following the microsurgery, animals were injected i.m. with antibiotic and were allowed to recuperate for one week. […]
Preference index—the preference index was calculated by the following equation [(total novel taste liquid ingested/(novel taste liquid ingested+water ingested))*100]. […]

[6] = system: mice; test: Delay fear conditioning test after QR2 shRNA lentivirus injection into the CA1 region of hippocampus; type: in vivo, mouse
Method: M&M—A delay fear conditioning test was performed on two groups of mice (10 mice per group) injected with Lentivirus encoding the QR2 shRNA or a scrambled sequence one week before the experiment. The Lentivirus was injected in to the CA1 region of hippocampus. The conditioning apparatus used was four New Biotechnology Ltd. (NBT) chambers, (Panlab Harvard Apparatus, Barcelona, Spain) consisting of a Plexiglas walls (25×25×25 cm) with a 16 stainless steel rods grid floor, a dim light and speakers. The apparatus was located inside a sound proof larger, insulated plastic cabinet that excluded outside light and noise. On day 1 (training), the mice were transported to the nearby testing room and set next to the conditioning chambers for a 5 min resting period with lights off. Each chamber was wiped with 30% ethanol solution before training and each mouse was placed in the chamber individually during training. For delay fear conditioning, mice were pre-exposed to an experimental chamber for 5 min, and received 5 trials in which 4000 Hz, tone, applied for 10 seconds at 76 dB (conditioned stimuli; CS) co-terminated by a 0.36 mA foot shock applied for 2 second (unconditioned stimuli; US), separated by 3.5 min inter-trial interval (ITI). After the last training trial, the mice were left in the conditioning chamber for another 120 s and were then placed back in their home cages.
On day 2 and day 8 (1 week later) (context fear test), the mice were returned to the same experimental chamber with the same contextual configuration for 10 min. Freezing behavior was recorded. On the third day and day 9 (1 week later) (tone fear test), the mice were set next to the conditioning chambers for a 5 min resting period with lights on, then mice were placed into the same experimental chamber, with novel contextual configuration (no light, and a smooth black Plexiglas floor), for 5 min during which freezing was record under infra-red light source. […] The animals' behavior was recorded, and the data analyzed by Freeze Frame 3.0 software (Coulbourn Instruments, PA, USA). […]

v394: shRNA construct directed against mouse QR2 (Sigma-Aldrich clone), subcloned into lentiviral plasmid pFUGW; chosen clone used for the injected virus (CCGGCAGUCACUGUGUCUGAUUUAUCUCGAGAUAAAUCAGACACAGUGACUGUUUUUG)
Quadrant occupancy (time in target quadrant), probe test ([1]; after completion of training, vs scrambled injected mice, p=0.031): preferential quadrant occupancy
Escape latency to hidden platform ([1]; day 4 of training, vs scrambled injected mice, p=0.036): shorter latency
Swimming speed ([1]; vs scrambled injected animals, data not shown): similar
Crossings of the platform location, probe test ([1]; vs scrambled injected mice, p=0.029): more times
QR2 mRNA expression [2]: slightly more effective
QR2 mRNA expression in the IC [3]: significantly lower QR2 mRNA expression
Memory extinction (aversion index over time) [4]: significant extinction on Day 3
Preference index (PI) [5]: 76.3+/−2.14
Long term memory (response to conditioned context and tone) ([6]; 1 week later, vs scrambled sequence, context p=0.03, tone p=0.031): enhanced long term memory
Freezing response, context test ([6]; day 2, vs scrambled sequence, n=10, p=0.031): froze significantly frequently
Freezing response, tone test ([6]; day 3, vs scrambled sequence, n=10, p=0.003): froze significantly frequently
